The values that follow come from BindingDB's records for doi:10.1016/s0960-894x(01)00014-2 (Rensselaer Polytechnic Institute, 2001).

What is called Ki is a dissociation constant, usually derived from enzyme kinetics or from competition with a known ligand. High values mean a looser hold on the target, low ones a stronger hold on the target.

A short description of the assay: Displacement of [3H]naltrindole from Opioid receptor delta 1 of guinea pig brain membranes. (Displacement assays read how much labelled ligand stays bound in the presence of the test substance.)

Consider `C[C@H]1C2Cc3ccc(C(=O)Nc4ccccc4)cc3[C@@]1(C)CCN2CC1CC1` [3-cyclopropylmethyl-6,11-dimethyl-1,2,3,4,5,6-hexahydro-2,6-methano-benzo[d]azocine-8-carboxylic acid phenylamide], for which the inhibition constant Ki amounted to 1400 nM. For `C[C@H]1C2Cc3ccc(C#N)cc3[C@@]1(C)CCN2CC1CC1` [(6S,11R)-3-Cyclopropylmethyl-6,11-dimethyl-1,2,3,4,5,6-hexahydro-2,6-methano-benzo[d]azocine-8-carbonitrile], the Ki was 2700 nM. The result for `C[C@@H]1[C@@H]2Cc3ccc(C(N)=O)cc3[C@]1(C)CCN2CC1CC1` [(6S,11R)-3-Cyclopropylmethyl-6,11-dimethyl-1,2,3,4,5,6-hexahydro-2,6-methano-benzo[d]azocine-8-carboxylic acid amide] reads 570 nM; that for `C[C@H]1[C@H]2Cc3ccc(C(N)=O)cc3[C@@]1(C)CCN2CC1CC1` [(6S,11R)-3-Cyclopropylmethyl-6,11-dimethyl-1,2,3,4,5,6-hexahydro-2,6-methano-benzo[d]azocine-8-carboxylic acid amide], 2.6 nM; that for `C[C@H]1C2Cc3ccc(C(=O)N(C)C)cc3[C@@]1(C)CCN2CC1CC1` [(6S,11R)-3-Cyclopropylmethyl-6,11-dimethyl-1,2,3,4,5,6-hexahydro-2,6-methano-benzo[d]azocine-8-carboxylic acid dimethylamide], > 35000 nM. The result for `COC(=O)c1ccc2c(c1)[C@@]1(C)CCN(CC3CC3)C(C2)[C@@H]1C` [(6S,11R)-3-Cyclopropylmethyl-6,11-dimethyl-1,2,3,4,5,6-hexahydro-2,6-methano-benzo[d]azocine-8-carboxylic acid methyl ester] reads 59 nM. The result for `CNC(=O)c1ccc2c(c1)[C@@]1(C)CCN(CC3CC3)C(C2)[C@@H]1C` [(6S,11R)-3-Cyclopropylmethyl-6,11-dimethyl-1,2,3,4,5,6-hexahydro-2,6-methano-benzo[d]azocine-8-carboxylic acid methylamide] reads 63 nM; that for `C[C@H]1C2Cc3ccc(C(=O)O)cc3[C@@]1(C)CCN2CC1CC1` [(6S,11R)-3-Cyclopropylmethyl-6,11-dimethyl-1,2,3,4,5,6-hexahydro-2,6-methano-benzo[d]azocine-8-carboxylic acid], 320 nM.
